Laboratory results published in PubChem BioAssay (NCI).
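Compound exposure: 48 hours, 5 concentrations, 96-well plates. TGI is the concentration that stops growth completely.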

Tests used:
Test in all cases: inhibition of tumour cell growth, NCI panel, 48 h
786-0 renal = test system: 786-0 renal
K-562 leukemia = test system: K-562 leukemia
NCI-H460 lung = test system: NCI-H460 lung
MALME-3M melanoma = test system: MALME-3M melanoma
M14 melanoma = test system: M14 melanoma
SR leukemia = test system: SR leukemia
KM20L2 colon = test system: KM20L2 colon
HT29 colon = test system: HT29 colon
EKVX NSCLC = test system: EKVX NSCLC
LXFL 529 NSCLC = test system: LXFL 529 NSCLC
TK-10 renal = test system: TK-10 renal
SF-539 CNS = test system: SF-539 CNS
DLD-1 colon = test system: DLD-1 colon
HCT-15 colon = test system: HCT-15 colon
HL-60(TB) leukemia = test system: HL-60(TB) leukemia
LOX IMVI melanoma = test system: LOX IMVI melanoma
CAKI-1 renal = test system: CAKI-1 renal
SN12C renal = test system: SN12C renal
SK-MEL-28 melanoma = test system: SK-MEL-28 melanoma
SW-620 colon = test system: SW-620 colon
HCT-116 colon = test system: HCT-116 colon
HOP-18 NSCLC = test system: HOP-18 NSCLC
SK-OV-3 ovarian = test system: SK-OV-3 ovarian
NCI-H522 lung = test system: NCI-H522 lung
ACHN renal = test system: ACHN renal
IGROV1 ovarian = test system: IGROV1 ovarian
HCC-2998 colon = test system: HCC-2998 colon
SF-268 CNS = test system: SF-268 CNS
A549 NSCLC = test system: A549 NSCLC
SNB-78 CNS = test system: SNB-78 CNS
SNB-75 CNS = test system: SNB-75 CNS
SK-MEL-2 melanoma = test system: SK-MEL-2 melanoma
HOP-62 NSCLC = test system: HOP-62 NSCLC
SK-MEL-5 melanoma = test system: SK-MEL-5 melanoma
RXF 393 renal = test system: RXF 393 renal
HOP-92 NSCLC = test system: HOP-92 NSCLC
SF-295 CNS = test system: SF-295 CNS
M19-MEL melanoma = test system: M19-MEL melanoma
NCI-H23 lung = test system: NCI-H23 lung
OVCAR-4 ovarian = test system: OVCAR-4 ovarian
OVCAR-3 ovarian = test system: OVCAR-3 ovarian
DMS 273 small cell lung = test system: DMS 273 small cell lung
UACC-257 melanoma = test system: UACC-257 melanoma
SNB-19 CNS = test system: SNB-19 CNS
OVCAR-8 ovarian = test system: OVCAR-8 ovarian
OVCAR-5 ovarian = test system: OVCAR-5 ovarian
A498 renal = test system: A498 renal
COLO 205 colon = test system: COLO 205 colon
RPMI-8226 leukemia = test system: RPMI-8226 leukemia
UACC-62 melanoma = test system: UACC-62 melanoma
U251 CNS = test system: U251 CNS
UO-31 renal = test system: UO-31 renal
NCI-H226 lung = test system: NCI-H226 lung
MOLT-4 leukemia = test system: MOLT-4 leukemia
DMS 114 small cell lung = test system: DMS 114 small cell lung
KM12 colon = test system: KM12 colon
CCRF-CEM leukemia = test system: CCRF-CEM leukemia
XF 498 CNS = test system: XF 498 CNS

O=C1c2ccccc2-c2ccccc2C(=O)C1(Br)Br
TGI (786-0 renal): 25.7 µM
TGI (K-562 leukemia): 28.3 µM
TGI (NCI-H460 lung): 35 µM
TGI (MALME-3M melanoma): 13.6 µM
TGI (M14 melanoma): 17.9 µM
TGI (SR leukemia): 4.95 µM
TGI (KM20L2 colon): 31.8 µM
TGI (HT29 colon): 32.7 µM
TGI (EKVX NSCLC): 27.7 µM
TGI (LXFL 529 NSCLC): 21.1 µM
TGI (TK-10 renal): 24.6 µM
TGI (SF-539 CNS): 23.7 µM
TGI (DLD-1 colon): 20.3 µM
TGI (HCT-15 colon): 25 µM
TGI (HL-60(TB) leukemia): 6.47 µM
TGI (LOX IMVI melanoma): 22.2 µM
TGI (CAKI-1 renal): 16.7 µM
TGI (SN12C renal): 24.2 µM
TGI (SK-MEL-28 melanoma): 20.8 µM
TGI (SW-620 colon): 13 µM
TGI (HCT-116 colon): 21.9 µM
TGI (HOP-18 NSCLC): 26.2 µM
TGI (SK-OV-3 ovarian): 33.7 µM
TGI (NCI-H522 lung): 4.92 µM
TGI (ACHN renal): 24.6 µM
TGI (IGROV1 ovarian): 27.2 µM
TGI (HCC-2998 colon): 32.2 µM
TGI (SF-268 CNS): 28.5 µM
TGI (A549 NSCLC): 34.6 µM
TGI (SNB-78 CNS): 23.4 µM
TGI (SNB-75 CNS): 17.6 µM
TGI (SK-MEL-2 melanoma): 23.6 µM
TGI (HOP-62 NSCLC): 32.2 µM
TGI (SK-MEL-5 melanoma): 31.1 µM
TGI (RXF 393 renal): 10.9 µM
TGI (HOP-92 NSCLC): 9.59 µM
TGI (SF-295 CNS): 29.6 µM
TGI (M19-MEL melanoma): 22.3 µM
TGI (NCI-H23 lung): 26.4 µM
TGI (OVCAR-4 ovarian): 26.7 µM
TGI (OVCAR-3 ovarian): 27.4 µM
TGI (DMS 273 small cell lung): 29.8 µM
TGI (UACC-257 melanoma): 22.8 µM
TGI (SNB-19 CNS): 31.6 µM
TGI (OVCAR-8 ovarian): 23.9 µM
TGI (OVCAR-5 ovarian): 32 µM
TGI (A498 renal): 30.2 µM
TGI (COLO 205 colon): 20.7 µM
TGI (RPMI-8226 leukemia): 4.65 µM
TGI (UACC-62 melanoma): 19.6 µM
TGI (U251 CNS): 29.4 µM
TGI (UO-31 renal): 27.5 µM
TGI (NCI-H226 lung): 31.7 µM
TGI (MOLT-4 leukemia): 7.53 µM
TGI (DMS 114 small cell lung): 28.5 µM
TGI (KM12 colon): 31.5 µM
TGI (CCRF-CEM leukemia): 9.26 µM

CC1(C)OC(=O)C(c2cccs2)C(=O)O1
TGI (786-0 renal): > 100 µM
TGI (K-562 leukemia): > 100 µM
TGI (NCI-H460 lung): > 100 µM
TGI (MALME-3M melanoma): > 100 µM
TGI (M14 melanoma): > 100 µM
TGI (SR leukemia): > 100 µM
TGI (KM20L2 colon): > 100 µM
TGI (HT29 colon): > 100 µM
TGI (EKVX NSCLC): > 100 µM
TGI (LXFL 529 NSCLC): > 100 µM
TGI (TK-10 renal): > 100 µM
TGI (SF-539 CNS): > 100 µM
TGI (DLD-1 colon): > 100 µM
TGI (HCT-15 colon): > 100 µM
TGI (LOX IMVI melanoma): > 100 µM
TGI (CAKI-1 renal): > 100 µM
TGI (SN12C renal): > 100 µM
TGI (SK-MEL-28 melanoma): > 100 µM
TGI (SW-620 colon): > 100 µM
TGI (HCT-116 colon): > 100 µM
TGI (HOP-18 NSCLC): > 100 µM
TGI (SK-OV-3 ovarian): > 100 µM
TGI (NCI-H522 lung): > 100 µM
TGI (ACHN renal): > 100 µM
TGI (HCC-2998 colon): > 100 µM
TGI (SF-268 CNS): > 100 µM
TGI (A549 NSCLC): > 100 µM
TGI (XF 498 CNS): > 100 µM
TGI (SNB-78 CNS): > 100 µM
TGI (SNB-75 CNS): > 100 µM
TGI (SK-MEL-2 melanoma): > 100 µM
TGI (HOP-62 NSCLC): > 100 µM
TGI (SK-MEL-5 melanoma): > 100 µM
TGI (RXF 393 renal): > 100 µM
TGI (HOP-92 NSCLC): > 100 µM
TGI (SF-295 CNS): > 100 µM
TGI (NCI-H23 lung): > 100 µM
TGI (OVCAR-4 ovarian): > 100 µM
TGI (OVCAR-3 ovarian): > 100 µM
TGI (DMS 273 small cell lung): > 100 µM
TGI (UACC-257 melanoma): > 100 µM
TGI (SNB-19 CNS): > 100 µM
TGI (OVCAR-8 ovarian): > 100 µM
TGI (OVCAR-5 ovarian): > 100 µM
TGI (COLO 205 colon): > 100 µM
TGI (RPMI-8226 leukemia): > 100 µM
TGI (UACC-62 melanoma): > 100 µM
TGI (U251 CNS): > 100 µM
TGI (UO-31 renal): > 100 µM
TGI (NCI-H226 lung): > 100 µM
TGI (MOLT-4 leukemia): > 100 µM
TGI (DMS 114 small cell lung): > 100 µM
TGI (KM12 colon): > 100 µM
TGI (CCRF-CEM leukemia): > 100 µM
